Measurements published in patent publication US20130130238A1, “Fluorimetric Process for Evaluating the Influence of A Condition on A Biological Sample and Applications Thereof” (NOVALEADS, priority 2008, published 2013).

Key:
Format in all cases: cell-based
[1] = tested on: HeLa cells; experiment: Kinetic profile of SYTO62 fluorescence under continuous illumination, HeLa cells treated with anticancer agent; conditions: 0.1 μM and 1 μM, 24 hours, 10 μM SYTO62, illumination 50 seconds at 488 nm
Procedure: The intensity of fluorescence is then measured every second. Each intensity value is then expressed as a percentage of the first fluorescence value measured. (IF: intensity of fluorescence; T: illumination time). HeLa cells (Sigma-Aldrich) are plated into a 96-well format transparent-bottomed black microplate at 20000 cells per well the day before the experiment. […] The intensity of fluorescence emitted by the biosensor is then measured every second.

[2] = tested on: HepG2 cells; experiment: Kinetic profile of SYTO13 fluorescence under continuous illumination, HepG2 cells treated with okadaic acid; conditions: 0.01, 0.031, 0.1, 0.31 and 1 μM, 24 hours, 2 μM final SYTO13, illumination 20 seconds at 488 nm
Procedure: The cells were then labelled with a solution of SYTO13 of 2 μM final concentration then subjected to continuous illumination for 20 seconds. The intensity of fluorescence is then measured every 0.4 seconds. Each intensity value is then expressed as a percentage of the first fluorescence value measured. (IF: intensity of fluorescence; T: illumination time).
HepG2 cells (ATCC) are plated into a 96-well format transparent-bottomed black microplate at 20000 cells per well two days before the experiment. The day before the test the cells are or are not treated with 75 μl of 0.01, 0.031, 0.1, 0.31 and 1 μM solutions of okadaic acid (Sigma-Aldrich). The cells are incubated for 24 hours.
On the day of the test, the cells are labelled for 30 minutes at 37° C. with 25 μl of an 8 μM solution of SYTO13 (Invitrogen) (i.e. 2 μM final) prepared in MEM culture medium (Invitrogen).
The samples are placed under a fluorescence microscope at ×100 magnification then subjected to continuous illumination at 488 nm with a mercury lamp for 20 seconds. The intensity of fluorescence emitted by the biosensor is then measured every 0.4 seconds.

[3] = tested on: HeLa cells; experiment: Kinetic profile of SYTO13 or SYTO15 fluorescence under continuous illumination, HeLa cells treated with apoptogenic agent; conditions: 1 μM, 7 hours
Procedure: HeLa cells were treated for 7 hours with (∘, Δ) or without ([…], ▴) 1 μM staurosporine. The cells were then labelled with a 10 μM solution of SYTO13 (Δ, ▴) or SYTO15 (∘, […]) then subjected to continuous illumination for 300 seconds. The intensity of fluorescence is then measured every 5 seconds. Each intensity value is then expressed as a percentage of the first fluorescence value measured. (IF: intensity of fluorescence; T: illumination time).
HeLa cells (Sigma-Aldrich) are plated into a 96-well format transparent-bottomed black microplate at 20000 cells per well the day before the experiment. On the day of the test the cells are or are not treated with 1 μM of staurosporine for 7 hours. The cells are then labelled for 20 minutes with 50 μl of a 10 μM solution of SYTO13 (Invitrogen) or SYTO15 (Invitrogen) prepared in buffer A.
The labelled cells are placed under a fluorescence reader of the Varioskan type (Thermo Electron Corporation) equipped with a Xenon Flash lamp. The samples labelled with SYTO13 and SYTO15 are then subjected for 300 seconds to continuous illumination at 488 nm and 516 nm respectively. The fluorescence intensities emitted by these biosensors are then measured every 5 seconds.

[4] = tested on: HeLa cells; experiment: Kinetic profile of SYTO62 fluorescence under continuous illumination, HeLa cells treated with apoptotic agent; conditions: 7 hours, 10 μM SYTO62, illumination 40 seconds at 488 nm
Procedure: HeLa cells were treated for 7 hours with (Δ, □, ⋄) or without (∘) 0.1 μM (Δ), 0.5 μM (□) and 1 μM (⋄) staurosporine. The cells were then labelled with a 10 μM solution of SYTO62 then subjected to continuous illumination for 40 seconds. The intensity of fluorescence is then measured every second. Each intensity value is then expressed as a percentage of the first fluorescence value measured. (IF: intensity of fluorescence; T: illumination time). HeLa cells (Sigma-Aldrich) are plated into a 96-well format transparent-bottomed black microplate at 20000 cells per well the day before the experiment. On the day of the test the cells are or are not treated with 0.1, 0.5 and 1 μM of staurosporine (Sigma-Aldrich) for 7 hours. The cells are then labelled for 20 minutes with 50 μl of a 10 μM solution of SYTO62 (Invitrogen) prepared in a buffer containing 25 mM Hepes, 140 mM NaCl, 1 mM EDTA and 0.1% bovine serum albumin (BSA), pH 7.4 (buffer A). The samples are placed under a fluorescence microscope (Leica DMIRB) at ×100 magnification then subjected to continuous illumination at 488 nm with a mercury lamp (HBO […]/2) for 40 seconds. The intensity of fluorescence emitted by the biosensor is then measured every second.

CC(=O)O[C@H]1C(=O)[C@@]2(C)[C@H]([C@H](OC(=O)c3ccccc3)[C@]3(O)C[C@H](OC(=O)[C@H](O)[C@@H](NC(=O)c4ccccc4)c4ccccc4)C(C)=C1C3(C)C)[C@]1(OC(C)=O)CO[C@@H]1C[C@@H]2O [Taxol, Paclitaxel]
variation in fluorescence measured under illumination [1]: dose-dependent decrease in the variation in fluorescence

C=C1[C@@H](O)[C@@H]2O[C@]3(CC[C@H](/C=C/[C@@H](C)[C@@H]4CC(C)=C[C@@]5(O[C@H](C[C@@](C)(O)C(=O)O)CC[C@H]5O)O4)O3)CC[C@H]2O[C@@H]1[C@@H](O)C[C@H](C)[C@H]1O[C@@]2(CCCCO2)CC[C@H]1C [okadaic acid]
variation in fluorescence measured under illumination [2]: dose-dependent decrease in the variation in fluorescence

CN[C@@H]1C[C@H]2O[C@@](C)([C@@H]1OC)n1c3ccccc3c3c4c(c5c6ccccc6n2c5c31)C(=O)NC4 [staurosporine]
increase in the fluorescence measured under continuous illumination ([3]; 10 μM SYTO13, illumination 300 seconds at 488 nm): does not induce an increase in the fluorescence measured | increase in the fluorescence measured under continuous illumination ([3]; 10 μM SYTO15, illumination 300 seconds at 516 nm): does not induce an increase in the fluorescence measured | increase in the intensity of fluorescence measured under continuous illumination ([4]; 0.1 μM): a weaker increase in fluorescence than in the untreated condition | increase in the intensity of fluorescence measured under continuous illumination ([4]; 0.5 μM): an increase in fluorescence is no longer measured | increase in the intensity of fluorescence measured under continuous illumination ([4]; 1 μM): an increase in fluorescence is no longer measured
